Measured values from US20250381166A1, “Cannabis-Derived Flavonoids And Related Methods” (CANURTA INC., priority 2022, published 2025).

Experiments:
[1] = test system: medulloblastoma cell; conditions: TrkB inhibition; cited from earlier work
[2] = test system: A172 GBM cells; assay: Boyden Chamber invasion assay; assay type: cell-based; conditions: 10 μM; for GBM cell invasion: 24 hours
Experimental: FIG. 9. […] Boyden Chamber assay was performed on A172 GBM cells to analyze minimal doses (10 μM) of TrkB inhibitors on preventing GBM cell invasion. Cells were pretreated in low serum media for 24 hours. Bottoms of transwell inserts were coated with fibronectin and tops were coated with Matrigel prior to cells being seeded with treatment media (low serum; n=3 per treatment). After 24 hours, cells were cleaned off the top of the Matrigel, and cells that invaded into the pores of the transwell were stained with 1% Crystal Violet and (A) imaged at 20×.

[3] = test system: A172 GBM cells; assay: AlamarBlue cell viability, A172; assay type: cell-based; conditions: 24, 48 and 72 hours, vs DMSO
Experimental: (§1) FIG. 6. Cannflavins A and B reduce the viability of Glioblastoma cells. Cell viability was measured using an AlamarBlue reaction after 24, 48, and 72 hours of treatment. […] Graphs represent mean±SEM.

[4] = test system: Neuro2a cells stably expressing Ntrk2-Myc-FLAG; assay: Neurite outgrowth assessment; assay type: cell-based; conditions: 10 μM with BDNF
Experimental: For neurite outgrowth assay, Neuro2a cells were cultured in DMEM [supplemented with 10% HyClone FetalClone II serum (Cytiva, Global Life Sciences Solutions, Marlborough, MA), penicillin (50 units/ml), and streptomycin (50 μg/ml)] and transfected overnight using Lipofectamine 2000 (Invitrogen) according to the manufacturer's protocol.
Neuro2A cells transfected with a pCMV6-Ntrk2-Myc-DDK (FLAG) construct were selected with G418 (Geneticin) to produce a stable cell line that constitutively expresses tagged-TrkB. For neurite outgrowth assessment, cells were seeded on 15 mm glass coverslips in 12-well plates at a density of 2.0×10^4 per well. […] Phase contrast digital images were collected with a 20× objective 48 h after plating and the total number of viable cells, total number of neurites, and cells with neurites longer than 2 cells in diameter were counted (five fields per dish, three wells per condition).

[5] = test system: U87 GBM cells; assay: AlamarBlue cell viability, U87; assay type: cell-based; conditions: 24, 48 and 72 hours, vs DMSO
Experimental: as §1

[6] = test system: Mapk; assay: Mapk phosphorylation, western blot, Neuro2a cells stably expressing Ntrk2-Myc-FLAG; assay type: cell-based; conditions: with BDNF
[7] = test system: prostaglandin E2 production; conditions: inhibitors of prostaglandin E2 production; cited from earlier work
[8] = test system: Arc mRNA; assay: Arc mRNA real-time reverse transcriptase PCR, primary cortical neurons; assay type: cell-based, mouse; conditions: 10 μM with BDNF; vs BDNF-alone control
[9] = test system: A172 GBM cells; assay: Scratch migration analysis, A172; conditions: 24 hours of treatment
[10] = test system: Arc protein; assay: BDNF-induced Arc expression, western blot, primary cortical neurons; assay type: cell-based, mouse; conditions: BDNF co-treatment, tested 1 to 20 μM
Experimental: The following procedure was used to quantify western blot analyses. First, equal quantity of protein lysate was analyzed by SDS-PAGE for each biological replicate. Second, the exposure time of the film to the ECL chemiluminescence was the same for each biological replicate. Third, all the exposed films were scanned on a HP Laser Jet Pro M377dw scanner in grayscale at a resolution of 300 dpi. Fourth, the look-up table (LUT) of the scanned tiff images was inverted and the intensity of each band was individually estimated using the selection tool and the histogram function in Adobe Photoshop CC 2021 software. Finally, the intensity of each band was divided by the intensity of its respective loading control (b-actin) to provide the normalized value used for statistical analysis.

[11] = test system: U87 GBM cells; assay: LDH cytotoxicity assay, U87; assay type: cell-based; conditions: 24 hours, compared to DMSO
[12] = target: T1, GPR150 (Homo sapiens, UniProt Q8NGU9); assay: PRESTO-Tango GPCR assay, GPR150; assay type: cell-based; conditions: 10 μM
T1 construct: expressed in transfected cells
T1 sequence (Q8NGU9 whole entry): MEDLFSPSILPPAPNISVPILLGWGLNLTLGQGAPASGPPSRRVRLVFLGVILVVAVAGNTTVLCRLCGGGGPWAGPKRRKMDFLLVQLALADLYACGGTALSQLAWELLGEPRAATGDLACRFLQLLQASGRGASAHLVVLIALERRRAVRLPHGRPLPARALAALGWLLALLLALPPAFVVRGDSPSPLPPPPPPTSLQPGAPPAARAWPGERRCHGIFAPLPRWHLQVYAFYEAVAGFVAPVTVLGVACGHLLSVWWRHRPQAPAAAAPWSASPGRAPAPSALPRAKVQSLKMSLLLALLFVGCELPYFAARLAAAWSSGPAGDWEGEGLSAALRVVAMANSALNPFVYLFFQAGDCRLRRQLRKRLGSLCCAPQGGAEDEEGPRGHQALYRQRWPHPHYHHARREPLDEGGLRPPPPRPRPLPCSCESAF

[13] = test system: U87 GBM cells; assay: Scratch migration analysis, U87; conditions: 24 hours of treatment
[14] = test system: Ras-Raf-MEK-MAPK and PI3K/AKT/mTOR cascades; assay: Signaling downstream of TrkB, western blot, primary cortical neurons; conditions: BDNF-induced increase; 0, 1, 5, 10, 20 μM
Experimental: Developing cerebral cortex from E16.5 CD-1 mouse embryos were dissected and then dissociated in trypsin solution for 15 min followed by three washes with phosphate-buffered saline (PBS). Trypsinized tissue was gently triturated to produce single cell suspension. Next, cells were seeded in poly-L-lysine/laminin coated 6-well plates at a density of 1.5×10^6 per well and maintained in Neurobasal medium containing B27 supplement (2%, Invitrogen, Grand Island, NY), penicillin (50 U/ml, Invitrogen), streptomycin (50 μg/ml, Invitrogen) and glutamine (1 mM, Sigma). For experiments involving BDNF (PeproTech, Rocky Hill, NJ), the growth factor was added directly to the culture medium at a final concentration of 100 ng/ml for the indicated period of time.
For western blot analyses, cells were collected by scraping in ice-cold radioimmunoprecipitation assay (RIPA) buffer (50 mM tris-HCl [pH 8.0], 300 mM NaCl, 0.5% Igepal-630, 0.5% deoxycholic acid, 0.1% SDS, 1 mM EDTA) supplemented with a cocktail of protease inhibitors (Complete Protease Inhibitor without EDTA, Roche Applied Science, Indianapolis, IN) and phosphatase inhibitors (Phosphatase Inhibitor Cocktail 3, Sigma-Aldrich). One volume of 2× Laemmli buffer (100 mM tris-HCl [pH 6.8], 4% SDS, 0.15% bromophenol blue, 20% glycerol, 200 mM b-mercaptoethanol) was added and the extracts were boiled for 5 min. Samples were adjusted to an equal concentration after protein concentrations were determined using the BCA assay (Pierce, Thermo Fisher Scientific). Lysates were separated using SDS-PAGE (polyacrylamide gel electrophoresis) and transferred to a nitrocellulose membrane. After transfer, the membrane was blocked in TBST (tris-buffered saline and 0.1% Tween 20) supplemented with 5% nonfat powdered milk and probed with the indicated primary antibody at 4° C. overnight. After washing with TBST, the membrane was incubated with the appropriate secondary antibody and visualized using enhanced chemiluminescence (ECL) reagents according to the manufacturer's guidelines (Pierce, Thermo Fisher Scientific).

[15] = test system: A172 GBM cells; assay: LDH cytotoxicity assay, A172; assay type: cell-based; conditions: 24 hours, compared to DMSO
[16] = test system: 320 distinct nonolfactory human GPCRs; assay: PRESTO-Tango GPCR assay (GPCRome panel); conditions: 10 μM; quadruplicate
[17] = test system: nuclear Arc; assay: BDNF-induced nuclear Arc, fluorescent immunocytochemistry, primary cortical neurons; assay type: cell-based, mouse; conditions: 10 μM co-treated with BDNF; vs BDNF-alone control
Experimental: Indirect immunofluorescence detection of antigens was carried out using cortical neurons cultured on poly-L-lysine/laminin coated coverslips in 24-well plates at a density of 0.1′10^6 per well. After experimental treatment, cells were washed twice with phosphate-buffered saline (PBS) and fixed for 30 min at room temperature with 4% paraformaldehyde in PBS. After fixation, cells were washed twice with PBS, permeabilized with PBST (PBS and 0.25% Triton X-100) for 20 min, blocked in blocking solution (5% goat non-immune serum in PBS) for another 30 min, and finally incubated overnight at 4° C. with the first primary antibody in blocking solution. The next day, coverslips were extensively washed with PBS and incubated for 2 hours at room temperature in the appropriate fluorophore-conjugated secondary antibody solution [Alexa Fluor 488-, Alexa Fluor 594, or Alexa Fluor 647-conjugated secondary antibody (Molecular Probes, Invitrogen) in blocking solution]. After washes with PBS, the coverslips were incubated again overnight in primary antibody solution for the second antigen, and the procedure for conjugation of the fluorophore-conjugated secondary antibody was repeated as above. Finally, cell nuclei were counterstained with 4′,6-diamidino-2-phenylindole (DAPI), and coverslips were mounted on glass slides with ProLong Antifade reagent (Invitrogen).
Cells cultured on coverslips from three independent biological replicates were imaged with a Nikon Eclipse Ti2-E inverted microscope equipped with a motorized stage, image stitching capability, and a 60× objective (Nikon Instruments, Melville, NY). Image analysis was performed with ImageJ and NIS Elements and the following procedure was used to quantify nuclear Arc level in response to BDNF-TrkB signaling. First, original raw tiff files were opened and the nucleus of all neurons in the image was located based on MAP2 immunostaining, then average pixel intensity corresponding to Arc immunofluorescence was measured for a 30-pixel spot positioned at the center of the nuclear compartment. […]

[18] = test system: nuclear Arc protein; conditions: 16.7 μM co-applied with recombinant BDNF for 6 h; cited from earlier work

## O=C(Nc1ccccc1C(=O)NC1CCCCNC1=O)c1cc2ccccc2s1 (stereo not shown) [ANA-12]
[1]
  medulloblastoma cell survival: reduced medulloblastoma cell survival by inducing apoptosis
[2]
  GBM cell invasion: decrease in GBM cell invasion
[3]
  cell viability (AlamarBlue): reduced cell viability
[4]; 24-hour treatment
  number of cells with neurites twice the length of the cell: decrease
  total number of neurites per field: decrease
  viable cells: decrease
[5]
  cell viability (AlamarBlue): reduced cell viability
[6]
  P-Mapk levels: did not observe a decrease

## COc1cc(-c2cc(=O)c3c(O)c(CC=C(C)C)c(O)cc3o2)ccc1O [cannflavin B]
[7]
  anti-inflammatory potency relative to aspirin: thirty times more potent than aspirin
[8]
  Arc mRNA abundance: prevent induction of Arc mRNA expression
[2]
  GBM cell invasion: decrease in GBM cell invasion
[2]; no statistical scores
  efficiency in reducing cell invasion compared with the other TrkB inhibitors: tends to be more efficient in reducing cell invasion than cannflavin A and ANA-12
[9]
  cell migration: reduce the migration
[10]
  concentrations resulting in significantly less Arc protein abundance than the BDNF-alone control: 1 to 20 µM
[3]
  cell viability (AlamarBlue): reduced cell viability
[11]
  LDH release / cell necrosis: slight increase in LDH release
[4]
  BDNF-induced neurite outgrowths: reduce
[12]
  increase of GPR150 activity from baseline: 4.4 fold-change
[13]
  cell migration: reduce the migration
[5]
  cell viability (AlamarBlue): reduced cell viability
[14]
  P-Akt level: sharply reduced
  P-MAPK level: sharply reduced
  P-mTOR level: sharply reduced
  P-rpS6 level: sharply reduced
[15]
  LDH release / cell necrosis: slight increase in LDH release

## COc1cc(-c2cc(=O)c3c(O)c(C/C=C(\C)CCC=C(C)C)c(O)cc3o2)ccc1O [cannflavin A]
[7]
  anti-inflammatory potency relative to aspirin: thirty times more potent than aspirin
[8]
  Arc mRNA abundance: prevent induction of Arc mRNA expression
[2]
  GBM cell invasion: reduce invasion
[9]
  cell migration: reduce the migration
[16]
  agonist activity on GPCRs: no effect on any of the 322 different GPCRs tested
[10]
  concentrations resulting in significantly less Arc protein abundance than the BDNF-alone control: 10 to 20 µM
[3]
  cell viability (AlamarBlue): reduced cell viability
[11]
  LDH release / cell necrosis: slight increase in LDH release
[4]
  BDNF-induced neurite outgrowths: reduce
[13]
  cell migration: reduce the migration
[5]
  cell viability (AlamarBlue): reduced cell viability
[14]
  P-Akt level: sharply reduced
  P-MAPK level: sharply reduced
  P-mTOR level: sharply reduced
  P-rpS6 level: sharply reduced
[15]
  LDH release / cell necrosis: slight increase in LDH release

## O=c1c(-c2ccc(O)cc2)coc2cc(O)ccc12 [daidzein]
[17]
  percentage of nuclei with Arc expression above threshold (Arc-positive neuronal abundance): moderate increase
[18]
  nuclear Arc protein level: enhance nuclear Arc protein level above the control measure

## O=C(O)[C@H]1O[C@@H](Oc2cc3oc(-c4ccccc4)cc(=O)c3c(O)c2O)[C@H](O)[C@@H](O)[C@@H]1O [baicalin]
[18]
  nuclear Arc protein level: enhance nuclear Arc protein level above the control measure

## O=c1c(-c2ccc(O)cc2)coc2cc(O)cc(O)c12 [genistein]
[17]
  percentage of nuclei with Arc expression above threshold (Arc-positive neuronal abundance): moderate increase
[18]
  nuclear Arc protein level: enhance nuclear Arc protein level above the control measure

## Oc1cc(O)c2c(c1)O[C@H](c1cc(O)c(O)c(O)c1)[C@H](O)C2 [ECGC, (−)-epigallocatechin]
[17]
  percentage of nuclei with Arc expression above threshold (Arc-positive neuronal abundance): moderate increase
[18]
  nuclear Arc protein level: enhance nuclear Arc protein level above the control measure

## O=c1cc(-c2ccccc2)oc2c(O)c(O)ccc12 [7,8-DHF, 7,8-dihydroxyflavone]
[18]
  nuclear Arc protein level: enhance nuclear Arc protein level above the control measure
